Data as given in PubChem BioAssay AID602147 (Vanderbilt Specialized Chemistry Center, 2011).
pIC50: −log10 of the molar value.

Target: Phospholipase D2 (Homo sapiens) (UniProt O14939)
Test: PLD2 inhibitor potency in cells, dose response (AID 602147)
Conditions: cellular PLD2 activity assay, concentration response

Sequence of Phospholipase D2 (Homo sapiens) (O14939 whole entry, looked up): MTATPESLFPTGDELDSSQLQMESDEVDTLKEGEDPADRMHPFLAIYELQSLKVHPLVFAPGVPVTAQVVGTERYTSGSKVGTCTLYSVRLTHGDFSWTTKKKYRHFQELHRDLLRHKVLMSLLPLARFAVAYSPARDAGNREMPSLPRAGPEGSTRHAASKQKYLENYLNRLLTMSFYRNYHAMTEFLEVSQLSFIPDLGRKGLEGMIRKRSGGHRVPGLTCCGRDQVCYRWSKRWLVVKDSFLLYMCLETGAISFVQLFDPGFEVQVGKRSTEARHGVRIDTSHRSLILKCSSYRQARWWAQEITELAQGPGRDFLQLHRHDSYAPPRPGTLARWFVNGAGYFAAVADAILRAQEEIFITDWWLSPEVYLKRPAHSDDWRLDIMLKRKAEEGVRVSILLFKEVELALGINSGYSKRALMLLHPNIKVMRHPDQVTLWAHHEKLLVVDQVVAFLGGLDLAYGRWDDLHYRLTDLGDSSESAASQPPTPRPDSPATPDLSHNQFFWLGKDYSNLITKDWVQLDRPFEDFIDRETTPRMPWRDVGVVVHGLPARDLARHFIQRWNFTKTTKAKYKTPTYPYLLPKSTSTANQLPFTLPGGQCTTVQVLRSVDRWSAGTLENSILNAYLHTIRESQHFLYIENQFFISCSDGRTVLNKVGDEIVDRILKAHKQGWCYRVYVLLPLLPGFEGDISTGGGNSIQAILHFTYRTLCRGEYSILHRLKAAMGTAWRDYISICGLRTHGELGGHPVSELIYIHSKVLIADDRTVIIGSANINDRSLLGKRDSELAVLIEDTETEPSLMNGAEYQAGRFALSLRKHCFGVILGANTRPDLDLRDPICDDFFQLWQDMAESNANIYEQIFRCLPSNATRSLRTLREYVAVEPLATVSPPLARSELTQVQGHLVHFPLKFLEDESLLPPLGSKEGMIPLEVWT
Sequence of Phospholipase D2 (Homo sapiens) (O14939 whole entry, looked up): as above

Q: How did the pIC50 turn out when O=C(NCCN1CCC2(CC1)C(=O)NCN2c1ccc(F)c(F)c1)c1ccc(F)cc1 was run?
A: 6.18

Q: O=C(NCCN1CCC2(CC1)C(=O)NCN2c1ccc(Br)cc1)c1ccc2ccccc2c1 was tested. Which pIC50 did it give?
A: 6.46

Q: O=C(NCCN1CCC2(CC1)C(=O)NCN2c1ccccc1)c1cc2ccccc2s1 was tested. Which pIC50 did it give?
A: 7.52

Q: With O=C(NCCN1CCC2(CC1)C(=O)NCN2c1ccc(Cl)cc1)c1ccc2ccccc2c1 as the compound, how does the pIC50 read?
A: 6.18

Q: How did the pIC50 turn out when O=C(NCCN1CCC2(CC1)C(=O)NCN2c1ccc(Br)cc1)c1cc2cc(F)ccc2[nH]1 was run?
A: 7.00

Q: With O=C(NCCN1CCC2(CC1)C(=O)NCN2c1ccc(Cl)cc1)c1ccc(F)cc1 as the compound, how does the pIC50 read?
A: 5.25

Q: O=C(NCCN1CCC2(CC1)C(=O)NCN2c1ccc(F)cc1)c1cnc2ccccc2c1 was tested. Which pIC50 did it give?
A: 7.40

Q: With O=C(NCCN1CCC2(CC1)C(=O)NCN2c1ccc(Cl)cc1)c1cnc2ccccc2c1 as the compound, how does the pIC50 read?
A: 6.70

Q: With O=C(NCCN1CCC2(CC1)C(=O)NCN2c1cccc(F)c1)c1cc2cc(F)ccc2[nH]1 as the compound, how does the pIC50 read?
A: 7.60

Q: How did the pIC50 turn out when O=C(C#Cc1ccccc1)NCCN1CCC2(CC1)C(=O)NCN2c1ccccc1 was run?
A: 5.79

Q: With O=C(NCCN1CCC2(CC1)C(=O)NCN2c1ccc(Cl)cc1)c1cc2cc(F)ccc2[nH]1 as the compound, how does the pIC50 read?
A: 7.30

Q: O=C(NCCN1CCC2(CC1)C(=O)NCN2c1ccc(Br)cc1)c1ccc(F)cc1 was tested. Which pIC50 did it give?
A: 5.10

Q: O=C(NCCN1CCC2(CC1)C(=O)NCN2c1ccc(F)cc1)c1ccc(F)cc1 was tested. Which pIC50 did it give?
A: 6.21

Q: With O=C(NCCN1CCC2(CC1)C(=O)NCN2c1cccc(F)c1)c1ccc(F)cc1 as the compound, how does the pIC50 read?
A: 5.17

Q: With O=C(NCCN1CCC2(CC1)C(=O)NCN2c1cccc(Cl)c1)c1ccc(F)cc1 as the compound, how does the pIC50 read?
A: 7.15

Q: With O=C(NCCN1CCC2(CC1)C(=O)NCN2c1cccc(Cl)c1)c1cc2cc(F)ccc2[nH]1 as the compound, how does the pIC50 read?
A: 7.14

Q: C[C@@H](CN1CCC2(CC1)C(=O)NCN2c1cccc(F)c1)NC(=O)c1ccc2ccccc2c1 was tested. Which pIC50 did it give?
A: 7.22

Q: With COc1cc(C(=O)NCCN2CCC3(CC2)C(=O)NCN3c2ccccc2)ccc1N as the compound, how does the pIC50 read?
A: 6.26

Q: How did the pIC50 turn out when O=C(NCCN1CCC2(CC1)C(=O)NCN2c1ccc(Br)cc1)c1cnc2ccccc2c1 was run?
A: 6.44

Q: O=C(NCCN1CCC2(CC1)C(=O)NCN2c1cccc(Cl)c1)c1ccc2ccccc2c1 was tested. Which pIC50 did it give?
A: 6.54

Q: How did the pIC50 turn out when O=C(NCCN1CCC2(CC1)C(=O)NCN2c1cccc(Cl)c1)c1cnc2ccccc2c1 was run?
A: 6.78

Q: O=C(NCCN1CCC2(CC1)C(=O)NCN2c1cccc(F)c1)c1cnc2ccccc2c1 was tested. Which pIC50 did it give?
A: 7.20

Q: How did the pIC50 turn out when O=C(NCCN1CCC2(CC1)C(=O)NCN2c1ccc(F)cc1)c1ccc2ccccc2c1 was run?
A: 7.10
